# Data published in patent US20250368649A1, “TETRAHYDROPYRIDOPYRIMIDINE PAN-KRAS INHIBITORS” (Mirati Therapeutics, Inc., priority 2022, published 2025).
# Experiments:
# [1] = molecular target: KRas G12V (Homo sapiens, UniProt P01116, G12V); test: biochemical; conditions: Binding to KRas (IC50 nM) G12V, TR-FRET displacement, KRas G12V
# [2] = molecular target: KRas Q61H (Homo sapiens, UniProt P01116, Q61H); test: KRas binding assay (TR-FRET displacement), KRas Q61H; conditions: TR-FRET displacement
# KRas Q61H, sequence (P01116 1-169 isoform P01116-2 Q61H): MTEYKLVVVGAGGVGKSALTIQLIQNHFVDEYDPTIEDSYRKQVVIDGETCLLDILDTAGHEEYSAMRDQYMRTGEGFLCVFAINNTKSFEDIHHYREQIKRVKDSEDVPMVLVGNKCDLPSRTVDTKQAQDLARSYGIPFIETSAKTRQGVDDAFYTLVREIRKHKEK
# [3] = molecular target: KRas G13D (Homo sapiens, UniProt P01116, G13D); assay type: binding; conditions: TR-FRET displacement, read-out: Binding to KRas (IC50 nM) G13D
# KRas G13D, sequence (P01116 1-169 isoform P01116-2 G13D): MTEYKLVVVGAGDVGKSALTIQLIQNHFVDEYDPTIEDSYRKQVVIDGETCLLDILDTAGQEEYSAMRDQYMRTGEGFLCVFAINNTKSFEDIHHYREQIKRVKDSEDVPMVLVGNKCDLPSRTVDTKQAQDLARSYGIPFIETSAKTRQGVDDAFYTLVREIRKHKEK
# [4] = molecular target: KRas G12S (Homo sapiens, UniProt P01116, G12S); assay type: binding; conditions: TR-FRET displacement, read-out: Binding to KRas (IC50 nM) G12S
# KRas G12S, sequence (P01116 1-169 isoform P01116-2 G12S): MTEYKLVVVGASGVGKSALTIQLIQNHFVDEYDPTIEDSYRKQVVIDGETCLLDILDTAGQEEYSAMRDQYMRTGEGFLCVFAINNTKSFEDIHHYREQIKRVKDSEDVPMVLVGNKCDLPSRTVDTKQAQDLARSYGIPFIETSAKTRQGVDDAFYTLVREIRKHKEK
# [5] = molecular target: KRas G12A (Homo sapiens, UniProt P01116, G12A); assay type: binding; conditions: TR-FRET displacement, read-out: Binding to KRas (IC50 nM) G12A
# KRas G12A, sequence (P01116 1-169 isoform P01116-2 G12A): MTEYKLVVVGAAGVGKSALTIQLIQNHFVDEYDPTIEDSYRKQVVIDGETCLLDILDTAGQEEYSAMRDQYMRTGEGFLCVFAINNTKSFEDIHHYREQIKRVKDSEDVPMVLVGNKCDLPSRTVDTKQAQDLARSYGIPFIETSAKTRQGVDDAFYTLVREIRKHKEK
# [6] = molecular target: KRas G12D (Homo sapiens, UniProt P01116, G12D); test: biochemical; conditions: Binding to KRas (IC50 nM) G12D, TR-FRET displacement, KRas G12D
# KRas G12D, sequence (P01116 1-169 isoform P01116-2 G12D): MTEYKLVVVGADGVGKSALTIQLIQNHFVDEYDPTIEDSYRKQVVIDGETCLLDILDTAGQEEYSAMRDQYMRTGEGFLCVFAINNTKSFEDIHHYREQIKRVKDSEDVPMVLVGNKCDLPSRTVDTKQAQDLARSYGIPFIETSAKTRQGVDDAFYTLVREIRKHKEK
# [7] = molecular target: KRas WT (Homo sapiens, UniProt P01116); test: KRas binding assay (TR-FRET displacement), KRas WT; conditions: TR-FRET displacement
# KRas WT, sequence (P01116 1-169 isoform P01116-2): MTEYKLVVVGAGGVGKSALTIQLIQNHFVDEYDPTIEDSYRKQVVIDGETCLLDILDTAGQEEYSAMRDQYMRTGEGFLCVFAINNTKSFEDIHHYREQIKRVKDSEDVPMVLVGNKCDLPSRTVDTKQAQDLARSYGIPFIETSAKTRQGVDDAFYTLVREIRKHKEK
# [8] = molecular target: KRas G12C (Homo sapiens, UniProt P01116, G12C); assay type: binding; conditions: TR-FRET displacement, read-out: Binding to KRas (IC50 nM) G12C
# KRas G12C, sequence (P01116 1-169 isoform P01116-2 G12C): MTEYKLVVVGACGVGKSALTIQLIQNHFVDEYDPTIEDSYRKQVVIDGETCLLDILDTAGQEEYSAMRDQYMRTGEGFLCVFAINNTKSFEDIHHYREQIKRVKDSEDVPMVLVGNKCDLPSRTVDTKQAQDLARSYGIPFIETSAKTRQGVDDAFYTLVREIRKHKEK
# KRas G12V, sequence (P01116 1-169 isoform P01116-2 G12V): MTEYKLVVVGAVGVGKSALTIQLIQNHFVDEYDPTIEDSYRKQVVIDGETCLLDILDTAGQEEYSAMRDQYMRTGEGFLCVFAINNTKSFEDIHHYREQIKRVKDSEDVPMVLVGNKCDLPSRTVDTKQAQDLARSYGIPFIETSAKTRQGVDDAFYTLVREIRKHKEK
SMILES,IC50 [1],IC50 [2],IC50 [3],IC50 [4],IC50 [5],IC50 [6],IC50 [7],IC50 [8]
"CCc1cccc2cccc(N3CCc4c(nc(OCC5(CN(C)C)CC5)nc4N4CCOC(c5nnc(C(C)C)o5)C4)C3)c12 (stereo not drawn) [Example 562, 1-(1-(((7-(8-ethylnaphthalen-1-yl)-4-(2-(5-isopropyl-1,3,4-oxadiazol-2-yl)morpholino)-5,6,7,8-tetrahydropyrido[3,4-d]pyrimidin-2-yl)oxy)methyl)cyclopropyl)-N,N-dimethylmethanamine]",6370 nM,14000 nM,21700 nM,6600 nM,7970 nM,25900 nM,10700 nM,4270 nM
"CCc1cccc2cccc(N3CCc4c(nc(OCC5(CN(C)C)CC5)nc4NCCN4CCNC4=O)C3)c12 [Example 555, 1-(2-((2-((1-((dimethylamino)methyl)cyclopropyl)methoxy)-7-(8-ethylnaphthalen-1-yl)-5,6,7,8-tetrahydropyrido[3,4-d]pyrimidin-4-yl)amino)ethyl)imidazolidin-2-one]",6180 nM,19700 nM,16400 nM,15000 nM,11900 nM,19000 nM,12200 nM,9190 nM
"CCc1cccc2cccc(N3CCc4c(nc(OCC5(CN(C)C)CC5)nc4NCC4COCC4n4cc(C(N)=O)nn4)C3)c12 (stereo not drawn) [Example 705, 1-(4-(((2-((1-((dimethylamino)methyl)cyclopropyl)methoxy)-7-(8-ethylnaphthalen-1-yl)-5,6,7,8-tetrahydropyrido[3,4-d]pyrimidin-4-yl)amino)methyl)tetrahydrofuran-3-yl)-1H-1,2,3-triazole-4-carboxamide]",8520 nM,15900 nM,21800 nM,20500 nM,16500 nM,3070 nM,13300 nM,10900 nM
"CCc1cccc2cccc(N3CCc4c(nc(OCC5(CN(C)C)CC5)nc4N4CCOC(C(F)F)CC4)C3)c12 (stereo not drawn) [Example 544, 1-(1-(((4-(7-(difluoromethyl)-1,4-oxazepan-4-yl)-7-(8-ethylnaphthalen-1-yl)-5,6,7,8-tetrahydropyrido[3,4-d]pyrimidin-2-yl)oxy)methyl)cyclopropyl)-N,N-dimethylmethanamine]",14500 nM,121 nM,112 nM,204 nM,291 nM,21100 nM,327 nM,180 nM
"CCc1cccc2cccc(N3CCc4c(nc(OCC5(CN(C)C)CC5)nc4NCC4CN(c5ncccn5)C4)C3)c12 [Example 561, 2-((1-((dimethylamino)methyl)cyclopropyl)methoxy)-7-(8-ethylnaphthalen-1-yl)-N-((1-(pyrimidin-2-yl)azetidin-3-yl)methyl)-5,6,7,8-tetrahydropyrido[3,4-d]pyrimidin-4-amine]",6110 nM,1740 nM,2190 nM,536 nM,994 nM,25700 nM,1280 nM,557 nM
"CCc1cccc2cccc(N3CCc4c(nc(OCC5(CN(C)C)CC5)nc4NCCc4cc(Br)no4)C3)c12 [Example 565, N-(2-(3-bromoisoxazol-5-yl)ethyl)-2-((1-((dimethylamino)methyl)cyclopropyl)methoxy)-7-(8-ethylnaphthalen-1-yl)-5,6,7,8-tetrahydropyrido[3,4-d]pyrimidin-4-amine]",6620 nM,34400 nM,18900 nM,12900 nM,12200 nM,34300 nM,13000 nM,8620 nM
"CCc1cccc2cccc(N3CCc4c(nc(OCC5(CN(C)C)CC5)nc4NCc4nnc5c(Cl)cccn45)C3)c12 [Example 563, N-((8-chloro-[1,2,4]triazolo[4,3-a]pyridin-3-yl)methyl)-2-((1-((dimethylamino)methyl)cyclopropyl)methoxy)-7-(8-ethylnaphthalen-1-yl)-5,6,7,8-tetrahydropyrido[3,4-d]pyrimidin-4-amine]",6510 nM,231 nM,1040 nM,320 nM,1370 nM,30500 nM,776 nM,697 nM

# These reach a lower IC50 [1]. Values come first.
IC50 [1],IC50 [2],IC50 [3],IC50 [4],IC50 [5],IC50 [6],IC50 [7],IC50 [8],SMILES
5210 nM,15300 nM,19800 nM,13600 nM,13400 nM,39100 nM,15700 nM,7900 nM,"CCc1cccc2cccc(N3CCc4c(nc(OCC5(CN(C)C)CC5)nc4NCCc4ncc(F)cc4F)C3)c12 [Example 568, N-(2-(3,5-difluoropyridin-2-yl)ethyl)-2-((1-((dimethylamino)methyl)cyclopropyl)methoxy)-7-(8-ethylnaphthalen-1-yl)-5,6,7,8-tetrahydropyrido[3,4-d]pyrimidin-4-amine]"
3990 nM,5940 nM,5070 nM,2900 nM,4150 nM,2460 nM,4610 nM,2290 nM,"CCc1cccc2cccc(N3CCc4c(nc(OCC5(CN(C)C)CC5)nc4NCc4nc(C(O)C5CC5)n[nH]4)C3)c12 (stereo not drawn) [Example 520, cyclopropyl(5-(((2-((1-((dimethylamino)methyl)cyclopropyl)methoxy)-7-(8-ethylnaphthalen-1-yl)-5,6,7,8-tetrahydropyrido[3,4-d]pyrimidin-4-yl)amino)methyl)-1H-1,2,4-triazol-3-yl)methanol]"
2320 nM,784 nM,680 nM,707 nM,798 nM,15900 nM,667 nM,622 nM,"CCc1cccc2cccc(N3CCc4c(nc(OCC5(CN(C)C)CC5)nc4NCCC4CC(C)(C)NC4=O)C3)c12 (stereo not drawn) [Example 547, 3-(2-((2-((1-((dimethylamino)methyl)cyclopropyl)methoxy)-7-(8-ethylnaphthalen-1-yl)-5,6,7,8-tetrahydropyrido[3,4-d]pyrimidin-4-yl)amino)ethyl)-5,5-dimethylpyrrolidin-2-one]"
3710 nM,4380 nM,7400 nM,14200 nM,11600 nM,29500 nM,6920 nM,8580 nM,"CCc1cccc2cccc(N3CCc4c(nc(OCC5(CN(C)C)CC5)nc4N4CCN(c5nc(O)cs5)CC4)C3)c12 [Example 564, 2-(4-(2-((1-((dimethylamino)methyl)cyclopropyl)methoxy)-7-(8-ethylnaphthalen-1-yl)-5,6,7,8-tetrahydropyrido[3,4-d]pyrimidin-4-yl)piperazin-1-yl)thiazol-4-ol]"
4410 nM,14100 nM,13900 nM,13600 nM,9110 nM,2330 nM,11000 nM,6330 nM,"CCc1cccc2cccc(N3CCc4c(nc(OCC5(CN(C)C)CC5)nc4NCc4cnc(C)nc4N)C3)c12 [Example 677, N-((4-amino-2-methylpyrimidin-5-yl)methyl)-2-((1-((dimethylamino)methyl)cyclopropyl)methoxy)-7-(8-ethylnaphthalen-1-yl)-5,6,7,8-tetrahydropyrido[3,4-d]pyrimidin-4-amine]"
5850 nM,12100 nM,16100 nM,8600 nM,8280 nM,8310 nM,10800 nM,5450 nM,"CCc1cccc2cccc(N3CCc4c(nc(OCC5(CN(C)C)CC5)nc4NCc4ccnn4CC(F)F)C3)c12 [Example 683, N-((1-(2,2-difluoroethyl)-1H-pyrazol-5-yl)methyl)-2-((1-((dimethylamino)methyl)cyclopropyl)methoxy)-7-(8-ethylnaphthalen-1-yl)-5,6,7,8-tetrahydropyrido[3,4-d]pyrimidin-4-amine]"
4710 nM,6460 nM,6190 nM,5060 nM,2980 nM,7570 nM,5320 nM,1830 nM,"CCc1cccc2cccc(N3CCc4c(nc(OCC5(CN(C)C)CC5)nc4N4CCCC(n5ccc(C)n5)C4)C3)c12 (stereo not drawn) [Example 535, 1-(1-(((7-(8-ethylnaphthalen-1-yl)-4-(3-(3-methyl-1H-pyrazol-1-yl)piperidin-1-yl)-5,6,7,8-tetrahydropyrido[3,4-d]pyrimidin-2-yl)oxy)methyl)cyclopropyl)-N,N-dimethylmethanamine]"
1720 nM,7730 nM,8850 nM,3750 nM,3280 nM,9350 nM,5810 nM,1840 nM,"CCc1cccc2cccc(N3CCc4c(nc(OCC5(CN(C)C)CC5)nc4N4CC(CO)OC(C(F)(F)F)C4)C3)c12 (stereo not drawn) [Example 540, (4-(2-((1-((dimethylamino)methyl)cyclopropyl)methoxy)-7-(8-ethylnaphthalen-1-yl)-5,6,7,8-tetrahydropyrido[3,4-d]pyrimidin-4-yl)-6-(trifluoromethyl)morpholin-2-yl)methanol]"
